# Reference: US11884686B2, “Chelate compounds” (priority 2016, dated 2024)
# Key:
# [1] = In vitro proton relaxivity in human serum; format: physicochemical; conditions: 60 MHz, 40° C.
# Experimental: Both the longitudinal and transverse relaxation times were measured in human serum (BioreclamationIVT, Cat #HMSRM-M) to reflect the efficiency of the Mn(II) based chelates in an environment close to physiological. The relaxivity assessment was carried out at a concentration ranging from 5 to 0 mM Mn(II), at 40° C. using a Minispec Mq benchtop NMR relaxometer (Bruker Instruments, Rheinstetten, Germany) operating at 60 MHz (1.4 T) with an inversion recovery pulse sequence. The longitudinal and transverse relaxivities of the complexes (e.g., r1 and r2 respectively) were calculated by plotting the reciprocal of their relaxation time versus the manganese concentration as determined via ICP-MS (Spectro Arcos FHS12, S/N 10003910 or S/N 12006120) for each Mn(II) based chelates. The dependence of T1 by B0 (i.e., magnetic field) applied was assessed via the acquisition of ^1H Nuclear Magnetic Relaxation Dispersion (NMRD) profiles. A dedicated Stelar SMARTracer Fast Field Cycling relaxometer (0.01-10 MHz) and a Bruker WP80 NMR electromagnet adapted to variable field measurements (20-80 MHz) and controlled by a SMARTracer PC-NMR console was used to record the ^1H NMRD profiles over an extended range of Larmor Frequencies (from 0.01 to 80 MHz). The temperature was monitored by a VTC91 temperature control unit and maintained by a gas flow. The temperature was determined by previous calibration with a Pt resistance temperature probe. High field relaxivities were measured on a Bruker AVANCE NMR spectrometer at 400 MHz. A total of 25 data points per NMRD profile were recorded at each temperature, pH 6.9 and with a manganese concentration in the samples of 6.99, 6.78 and 4.45 mM for the prior art Mn Chelate, Mn Chelate 4 and Mn Chelate 3, respectively. The concentration of Mn(II) in all samples was verified by Bulk Magnetic Susceptibility (BMS) measurements. Relaxivity was computed by subtracting the relaxation rate of the medium (distilled water) from the relaxation rate of the Mn(II) complex solution at each field strength and dividing the difference by the manganese concentration verified by BMS measurements.
# The linear fit (R2>0.99 for all compounds examined) of 1/T1 and 1/T2 as a function of Mn concentration generated the r1 or r2 values reported in Table 4 for human serum.
# [2] = Water solubility of Mn(II) based chelates; format: physicochemical; conditions: thermodynamic from solid, 25° C.
# Experimental: The solubility of Mn(II) based chelates was confirmed by dissolving purified Mn(II) based chelates ( 99% purity) in a prescribed volume of solvent (Millipore water 18.2 MegaOhm from a Millipore BioCell Benchtop unit) to provide a solution of given volume. Solutions were visually inspected for homogeneity and filtered through a 0.45 um PTFE filter membrane if necessary. The assessment was carried out at 25° C. Final sample concentrations were confirmed by determination of final Mn(II) concentration via ICP-MS (Spectro Arcos FHS[…] 10003910 or S/N 12006120).
Compound,r1 (longitudinal relaxivity) [1] [mM⁻¹ s⁻¹],solubility [2] [mM]
CN1CCN2Cc3cccc(n3)CN(CC1)C(CCC(=O)NC(CO)(CO)CO)C(=O)[O][Mn][O]C(=O)C2CCC(=O)NC(CO)(CO)CO (stereo not shown) [Mn Chelate 11],4.6,–
CN1CCN2Cc3cccc(n3)CN(CC1)C(CCC(=O)NCC(O)CO)C(=O)[O][Mn][O]C(=O)C2CCC(=O)NCC(O)CO (stereo not shown) [Mn Chelate 10],4.3,> 500
CN1CCN2Cc3cccc(n3)CN(CC1)C(CC(=O)NC[C@H](O)[C@@H](O)[C@H](O)[C@H](O)CO)C(=O)[O][Mn][O]C(=O)C2CC(=O)NC[C@H](O)[C@@H](O)[C@H](O)[C@H](O)CO (stereo partly shown) [Mn Chelate 5a],3.7,> 500
CN1CCN2Cc3cccc(n3)CN(CC1)C(CCC(=O)NC[C@H](O)[C@@H](O)[C@H](O)[C@H](O)CO)C(=O)[O][Mn][O]C(=O)C2CCC(=O)NC[C@H](O)[C@@H](O)[C@H](O)[C@H](O)CO (stereo partly shown) [Mn Chelate 5],5.2,> 500
CN1CCN2Cc3cccc(n3)CN(CC1)C(CC(=O)NCC(O)CO)C(=O)[O][Mn][O]C(=O)C2CC(=O)NCC(O)CO (stereo not shown) [Mn Chelate 10a],3.8,> 500
CN1CCN2Cc3cccc(n3)CN(CC1)C(CCC(=O)Nc1cc(C(=O)NCC(O)CO)cc(C(=O)NCC(O)CO)c1)C(=O)[O][Mn][O]C(=O)C2CCC(=O)Nc1cc(C(=O)NCC(O)CO)cc(C(=O)NCC(O)CO)c1 (stereo not shown) [Mn Chelate 7],6.0,> 500
CN1CCN2Cc3cccc(n3)CN(CC1)C(CCC(=O)N(CCO)CCO)C(=O)[O][Mn][O]C(=O)C2CCC(=O)N(CCO)CCO (stereo not shown) [Mn Chelate 9],4.3,> 500
